Protection and IC50 data for 14 compounds are collected here from ChEMBL document CHEMBL1131814, “Structure-activity relationship of N-methyl-N-aralkyl-peptidylamines as novel N-type calcium channel blockers” (Bioorg Med Chem Lett, 1999).

Molecules are shown by their SMILES.

Experiment [1] deals with Mus musculus. As to the kind of experiment: Percentage of protection from audiogenic tonic seizures in DBA/2 mice after intravenous administration at a dose of 30 mg/kg. The format is functional.
Experiment [2] concerns the target Voltage-dependent N-type calcium channel subunit alpha-1B (Homo sapiens, UniProt Q00975). As to the kind of experiment: Inhibition of N-type calcium channels in IMR-32 human neuroblastoma cells. It counts as cell-based.
For experiment [3], the system named is Mus musculus. As to the kind of experiment: Percentage of protection from audiogenic tonic seizures in DBA/2 mice after intravenous administration at a dose of 10 mg/kg. The format is functional.

Chain of Voltage-dependent N-type calcium channel subunit alpha-1B (Q00975 whole entry): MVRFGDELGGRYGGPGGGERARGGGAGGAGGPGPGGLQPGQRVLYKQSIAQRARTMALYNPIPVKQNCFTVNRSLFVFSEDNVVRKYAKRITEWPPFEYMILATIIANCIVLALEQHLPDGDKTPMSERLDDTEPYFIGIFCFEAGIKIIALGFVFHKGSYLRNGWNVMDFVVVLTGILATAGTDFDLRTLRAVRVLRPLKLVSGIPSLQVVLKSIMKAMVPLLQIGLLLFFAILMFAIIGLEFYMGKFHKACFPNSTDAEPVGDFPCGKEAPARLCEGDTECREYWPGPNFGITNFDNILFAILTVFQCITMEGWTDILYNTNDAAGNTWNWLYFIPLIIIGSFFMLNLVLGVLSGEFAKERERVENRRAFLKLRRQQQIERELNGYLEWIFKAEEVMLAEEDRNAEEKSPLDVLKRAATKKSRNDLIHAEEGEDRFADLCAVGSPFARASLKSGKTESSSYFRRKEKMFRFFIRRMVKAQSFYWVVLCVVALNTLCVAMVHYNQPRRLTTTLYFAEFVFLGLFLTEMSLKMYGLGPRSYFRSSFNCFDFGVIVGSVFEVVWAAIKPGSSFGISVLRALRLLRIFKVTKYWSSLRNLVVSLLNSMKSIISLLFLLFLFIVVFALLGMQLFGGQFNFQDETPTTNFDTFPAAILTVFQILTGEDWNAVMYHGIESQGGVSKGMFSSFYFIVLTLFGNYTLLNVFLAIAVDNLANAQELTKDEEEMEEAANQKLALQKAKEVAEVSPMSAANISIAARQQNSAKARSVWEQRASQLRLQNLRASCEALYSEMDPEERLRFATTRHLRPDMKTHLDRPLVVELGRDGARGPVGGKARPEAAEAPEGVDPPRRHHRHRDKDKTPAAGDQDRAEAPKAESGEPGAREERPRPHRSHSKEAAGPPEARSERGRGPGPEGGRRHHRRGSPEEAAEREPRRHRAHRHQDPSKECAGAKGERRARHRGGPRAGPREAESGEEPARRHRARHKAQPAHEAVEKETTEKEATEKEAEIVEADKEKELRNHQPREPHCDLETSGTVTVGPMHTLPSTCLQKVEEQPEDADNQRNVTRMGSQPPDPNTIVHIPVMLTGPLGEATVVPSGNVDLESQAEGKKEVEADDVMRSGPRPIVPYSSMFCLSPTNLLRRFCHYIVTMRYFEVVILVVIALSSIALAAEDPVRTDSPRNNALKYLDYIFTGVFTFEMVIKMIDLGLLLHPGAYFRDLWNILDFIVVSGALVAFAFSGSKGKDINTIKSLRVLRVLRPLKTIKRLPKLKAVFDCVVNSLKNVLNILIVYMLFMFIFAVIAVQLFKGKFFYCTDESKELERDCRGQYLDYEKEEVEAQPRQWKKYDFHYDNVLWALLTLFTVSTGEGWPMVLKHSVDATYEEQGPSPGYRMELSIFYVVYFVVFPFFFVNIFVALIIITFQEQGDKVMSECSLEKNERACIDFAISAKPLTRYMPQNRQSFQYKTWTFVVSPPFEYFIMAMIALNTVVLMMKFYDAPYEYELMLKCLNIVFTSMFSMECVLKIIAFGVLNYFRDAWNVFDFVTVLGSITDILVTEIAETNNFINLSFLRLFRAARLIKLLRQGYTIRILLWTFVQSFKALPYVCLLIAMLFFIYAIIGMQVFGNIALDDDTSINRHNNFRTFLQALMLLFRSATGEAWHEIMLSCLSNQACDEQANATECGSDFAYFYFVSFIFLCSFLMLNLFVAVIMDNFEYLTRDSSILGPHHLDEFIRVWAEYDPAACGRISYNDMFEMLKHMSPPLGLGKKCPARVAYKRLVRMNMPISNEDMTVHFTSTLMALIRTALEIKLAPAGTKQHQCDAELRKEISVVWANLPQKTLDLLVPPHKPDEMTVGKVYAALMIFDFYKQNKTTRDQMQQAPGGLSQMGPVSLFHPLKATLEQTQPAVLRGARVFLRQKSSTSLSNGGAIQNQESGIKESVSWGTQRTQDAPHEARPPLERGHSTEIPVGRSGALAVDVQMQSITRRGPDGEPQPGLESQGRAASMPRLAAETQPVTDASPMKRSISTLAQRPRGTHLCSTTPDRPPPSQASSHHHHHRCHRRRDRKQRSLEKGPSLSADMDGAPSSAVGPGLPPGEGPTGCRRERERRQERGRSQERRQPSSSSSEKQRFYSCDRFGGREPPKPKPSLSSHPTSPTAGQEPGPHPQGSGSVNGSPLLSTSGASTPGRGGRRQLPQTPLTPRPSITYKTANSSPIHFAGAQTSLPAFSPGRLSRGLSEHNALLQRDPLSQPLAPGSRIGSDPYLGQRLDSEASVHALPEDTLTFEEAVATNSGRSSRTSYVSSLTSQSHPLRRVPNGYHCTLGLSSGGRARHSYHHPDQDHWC

What is called IC50 is the concentration that gives 50% inhibition. As to `CC(C)C[C@@H](C(=O)N[C@@H](Cc1ccc(OC(=O)c2ccccc2)cc1)C(=O)NC(C)(C)C)N(C)Cc1ccco1`, the Protection in the experiment with Mus musculus [1] was 60%. Moreover, in experiment [2], the IC50 worked out at 1.6 µM.

Take `CC(C)C[C@@H](C(=O)N[C@@H](Cc1ccc(OC(=O)c2ccccc2)cc1)C(=O)NC(C)(C)C)N(C)Cc1ccc(Cl)cc1`: the IC50 in experiment [2] is 0.23 µM.

On to `CC(C)C[C@@H](C(=O)N[C@@H](Cc1ccc(OC(=O)c2ccccc2)cc1)C(=O)NC(C)(C)C)N(C)Cc1ccccc1`, for which, in experiment [2], the IC50 turned out to be 0.36 µM.

As to `CC(C)C[C@@H](C(=O)N[C@@H](Cc1ccc(OC(=O)c2ccccc2)cc1)C(=O)NC(C)(C)C)N(C)Cc1ccc(C(C)(C)C)cc1`, in the experiment with Mus musculus [1], the Protection worked out at 60%. In addition, the IC50 in experiment [2] was 0.036 µM.

Take `CC(C)C[C@@H](C(=O)N[C@@H](Cc1ccc(OC(=O)c2ccccc2)cc1)C(=O)NC(C)(C)C)N(C)Cc1ccc(O)cc1`: in experiment [2], the 50% inhibitory concentration (IC50) stood at 1 µM.

As for `CC(C)C[C@@H](C(=O)N[C@@H](Cc1ccc(OC(=O)c2ccccc2)cc1)C(=O)NC(C)(C)C)N(C)Cc1cccnc1`, in experiment [2], the IC50 came out at 1.7 µM.

As to `CC(C)C[C@@H](C(=O)N[C@@H](Cc1ccc(OC(=O)c2ccccc2)cc1)C(=O)NC(C)(C)C)N(C)CCc1ccccc1`, the half-maximal inhibitory concentration (IC50) in experiment [2] came out at 1.7 µM.

As for `COc1ccc(CN(C)[C@@H](CC(C)C)C(=O)N[C@@H](Cc2ccc(OC(=O)c3ccccc3)cc2)C(=O)NC(C)(C)C)cc1`, the Protection with Mus musculus [1] is 100%; with Mus musculus [3], 40%. The IC50 in experiment [2] stood at 0.5 µM.

Take `CC(C)C[C@@H](C(=O)N[C@@H](Cc1ccc(OC(=O)c2ccccc2)cc1)C(=O)NC(C)(C)C)N(C)CC1CCCCC1`: the results for the Protection in the experiment with Mus musculus [1] and in the experiment on Mus musculus [3] were 100% and 20%, respectively. Moreover, the IC50 in experiment [2] was found to be 0.68 µM.

On to `CC(C)C[C@@H](C(=O)N[C@@H](Cc1ccc(OC(=O)c2ccccc2)cc1)C(=O)NC(C)(C)C)N(C)Cc1ccc(Br)cc1`, for which, in experiment [2], the IC50 is 0.13 µM.

In the case of `CC(C)C[C@@H](C(=O)N[C@@H](Cc1ccc(OC(=O)c2ccccc2)cc1)C(=O)NC(C)(C)C)N(C)CCCc1ccccc1`, the IC50 in experiment [2] worked out at 1.9 µM.

Turning to `CC(C)C[C@@H](C(=O)N[C@@H](Cc1ccc(OC(=O)c2ccccc2)cc1)C(=O)NC(C)(C)C)N(C)Cc1ccccc1Cl`, in experiment [2], the IC50 is 0.56 µM.

Regarding `CC(C)C[C@@H](C(=O)N[C@@H](Cc1ccc(OC(=O)c2ccccc2)cc1)C(=O)NC(C)(C)C)N(C)Cc1ccc(N(C)C)cc1`, the Protection with Mus musculus [1] worked out at 80%. In addition, the half-maximal inhibitory concentration (IC50) in experiment [2] turned out to be 0.28 µM.

For `CC(C)C[C@@H](C(=O)N[C@@H](Cc1ccc(OC(=O)c2ccccc2)cc1)C(=O)NC(C)(C)C)N(C)Cc1cccc(Cl)c1`, the IC50 in experiment [2] was determined as 1 µM.
